Assays:
Assay type in all cases: cell-based
[1] = system: SH-SY5Y (human neuroblastoma) cells; test: Cell viability, Cell Titer Glo 2.0 assay; conditions: read-out: Viability SHSY5Y.3 GI50
Protocol: Compounds described herein were screened for toxicity in K562 (human chronic myelogenous leukemia) and SH-SY5Y (human neuroblastoma) cells using a Cell Titer Glo 2.0 assay.
• Promega CellTiter-Glo® 2.0 Cell Viability Assay (cat #G9241) • Corning 384-well TC-treated microplates (cat #3570)
Cells were plated at 500 cells/well (K562 cells) in 45 μL of IMDM supplemented with 10% FBS in a 384-well opaque plate. Wells containing only medium were used as a blank control. Test compounds (e.g., compounds of Formula (I) or (II) were first serially diluted in DMSO then diluted 1:100 with IMDM+10% FBS. The final concentration of DMSO was 0.1% in each well. The cells were incubated for 72 hours at 37° C. and 5% CO2 before assaying with Cell Titer Glo 2.0 reagent.

HTT mRNA [2] = test: Splicing RT-qPCR assay (THP), Table 2A; conditions: Table 2A (THP); for AC50: AJ mRNA increase, read-out: HTT AJ (increase in alternative junction mRNA, AC50); for IC50: CJ mRNA decrease, read-out: HTT CJ (decrease in canonical junction mRNA, IC50)
MYB mRNA [3] = test: Splicing RT-qPCR assay (THP), Table 2A; conditions: Table 2A (THP); for AC50: AJ mRNA increase, read-out: MYB AJ (increase in alternative junction mRNA, AC50); for IC50: CJ mRNA decrease, read-out: MYB CJ (decrease in canonical junction mRNA, IC50)
HTT mRNA [4] = test: Gene panel canonical junction qPCR assay, decrease in CJ mRNA, Table 3; conditions: decrease in canonical junction (CJ) mRNA, gene panel qPCR, Table 3
Protocol: (§1) Compounds described herein were used to modulate RNA transcript abundance in cells. The expression of a target mRNA was measured by detecting the formation of an exon-exon junction in the canonical transcript (CJ). A compound mediated exon-inclusion event was detected by observing an increase in formation of a new junction with an alternative exon (AJ). Real-time qPCR assays were used to detect these splicing switches and interrogate the potency of various compounds towards different target genes. A high-throughput real time quantitative PCR (RT-qPCR) assay was developed to measure these two isoforms of the mRNA (CJ and AJ) for exemplary genes, such as HTT, SMN2, and MYB, together with a control housekeeping gene, GAPDH or GUSB or PPIA, used for normalization. Briefly, the A673 or K562 cell line was treated with various compounds described herein (e.g., compounds of Formula (I)). After treatment, the levels of the HTT, MYB, or SMN2 mRNA targets were determined from each sample of cell lysate by cDNA synthesis followed by qPCR.
(§2) The A673 cell line was cultured in DMEM with 10% FBS. Cells were diluted with full growth media and plated in a 96-well plate (15,000 cells in 100 ul media per well). The plate was incubated at 37° C. with 5% CO2 for 24 hours to allow cells to adhere. An 11-point 3-fold serial dilution of the compounds was made in DMSO then diluted in media in an intermediate plate. Compounds were transferred from the intermediate plate to the cell plate with the top dose at a final concentration of 10 uM in the well. Final DMSO concentration was kept at or below 0.25%. The cell plate was returned to the incubator at 37° C. with 5% CO2 for an additional 24 hours.
(§3) The K562 cell line was cultured in IMDM with 10% FBS. For K562, cells were diluted with full growth media and plated in either a 96-well plate (50,000 cells in 50 uL media per well) or a 384-well plate (8,000-40,000 cells in 45 uL media per well). An 11-point 3-fold serial dilution of the compounds were made in DMSO then diluted in media in an intermediate plate. Compound was transferred from the intermediate plate to the cell plate with the top dose at a final concentration of 10 uM in the well. Final DMSO concentration was kept at or below 0.25%. Final volume was 100 uL for 96-well plate and 50 uL for 384-well plate. The cell plate was then placed in an incubator at 37° C. with 5% CO2 for 24 hours.
(§4) The data analysis was performed by first determining the ΔCt vs the housekeeper gene. This ΔCt was then normalized against the DMSO control (ΔΔCt) and converted to RQ (relative quantification) using the 2^(−ΔΔCt) equation. The RQ were then converted to a percentage response by arbitrarily setting an assay window of 3.5 and 4.0 ΔCt for HTT-CJ and MYB-CJ respectively and an assay window of 9 and 3 ΔCt for HTT-AJ and MYB-AJ in 96 well format (50,000 K562 cells/well and 15,000 A673 cells per well) and an assay window of 3 and 4 ΔCt for HTT-CJ and MYB-CJ respectively and an assay window of 5 and 3 ΔCt for HTT-AJ and MYB-AJ respectively in 384 well format (8,000 K562 cells/well example). […] The percentage response was then fitted to the 4 parametric logistic equation to evaluate the concentration dependence of compound treatment. The increase in AJ mRNA is reported as AC50 (compound concentration having 50% response in AJ increase) while the decrease in CJ mRNA levels is reported as IC50 (compound concentration having 50% response in CJ decrease).
(§5) Additional studies were carried out for a larger panel of genes using the protocol provided above. The junction between flanking upstream and downstream exons was used to design canonical junction qPCR assays. At least one of the forward primer, reverse primer or the CY5-labeled 5′ nuclease probe (with 3′ quencher such as ZEN/Iowa Black FQ) was designed to overlap with the exon junction to capture the CJ mRNA transcript. […]

MYB mRNA [5] = test: as above; conditions: decrease in canonical junction (CJ) mRNA, gene panel qPCR, Table 3
Protocol: as §1, §2, §3, §4, §5

| Structure (SMILES) | GI50 [1] [µM] | AC50 (HTT mRNA [2]) [µM] | IC50 (HTT mRNA [2]) [µM] | AC50 (MYB mRNA [3]) [µM] | IC50 (MYB mRNA [3]) [µM] | IC50 (HTT mRNA [4]) [µM] | IC50 (MYB mRNA [5]) [µM] |
| --- | --- | --- | --- | --- | --- | --- | --- |
| Cc1cn2cc(NC(=O)c3ccc(N4CC[C@H]5CNCC[C@H]54)c4cn(C)nc34)nc2c(C)n1 (stereo in doubt) [Compound 502] | 0.1 to 1 | 0.1 to 1 | 0.1 to 1 | 0.1 to 1 | 0.1 to 1 | 0.1 to 1 | 0.1 to 1 |
| Cc1cn2cc(NC(=O)c3ncc(N4CCC(NC5CC5)CC4)c4cn(C)nc34)nc2c(C)n1 [Compound 264, 4-[4-(cyclopropylamino)-1-piperidyl]-N-(6,8-dimethylimidazo[1,2-a]pyrazin-2-yl)-2-methyl-pyrazolo[3,4-c]pyridine-7-carboxamide] |  | > 10 | > 10 | > 10 | > 10 |  |  |
| Cc1cn2cc(NC(=O)c3ccc(N4CCNCC4)c4cn(C)nc34)cc(Br)c2n1 [Compound 265, N-(8-bromo-2-methyl-imidazo[1,2-a]-pyridin-6-yl)-2-methyl-4-piperazin-1-yl-indazole-7-carboxamide] | 1 to 10 |  |  |  |  |  |  |
| CCNC1CCN(c2cc(F)c(C(=O)Nc3cn4c(N)c(C)nc4c(F)c3OC)c3nn(C)cc23)CC1 [Compound 310, N-(3-amino-8-fluoro-7-methoxy-2-methyl-imidazo[1,2-a]pyridin-6-yl)-4-[4-(ethylamino)-1-piperidyl]-6-fluoro-2-methyl-indazole-7-carboxamide] | > 10 | > 10 | > 10 | > 10 | > 10 | > 10 | > 10 |
| CCNC1CCN(c2ccc(C(=O)Nc3cn4cc(CC)nc(C)c4n3)c3nn(C)cc23)CC1 [Compound 311, N-(6-ethyl-8-methylimidazo [1,2-a]pyrazin-2-yl)-4-(4-(ethylamino)piperidin-1-yl)-2-methyl-2H-indazole-7-carboxamide 2,2,2-trifluoroacetate] | > 10 | > 10 | > 10 | > 10 | > 10 | > 10 | > 10 |
| CCNC1CCN(c2ccc(C(=O)Nc3cn4cc(C)nc(C5CC5)c4n3)c3nn(C)cc23)CC1 [Compound 312, N-(8-cyclopropyl-6-methyl-imidazo[1,2-a]pyrazin-2-yl)-4-[4-(ethylamino)-1-piperidyl]-2-methyl-indazole-7-carboxamide] | 1 to 10 | 1 to 10 | 1 to 10 | 1 to 10 | 1 to 10 | 1 to 10 | 1 to 10 |
| CCNC1CCN(c2ccc(C(=O)Nc3cc(Oc4ccccc4Cl)c4nc(C)cn4c3)c3nn(C)cc23)CC1 [Compound 313, N-[8-(2-chlorophenoxy)-2-methylimidazo-[1,2-a]pyridin-6-yl]-4-[4-(ethylamino)-1-piperidyl]-2-methyl-indazole-7-carboxamide] | 1 to 10 | > 10 | > 10 | 1 to 10 | > 10 | > 10 | > 10 |
| CCNC1CCN(c2ccc(C(=O)Nc3cc(Oc4cccc(Cl)c4)c4nc(C)cn4c3)c3nn(C)cc23)CC1 [Compound 314, N-[8-(3-chlorophenoxy)-2-methylimidazo-[1,2-a]pyridin-6-yl]-4-[4-(ethylamino)-1-piperidyl]-2-methyl-indazole-7-carboxamide] | 0.1 to 1 | 1 to 10 | 1 to 10 | < 0.1 | 0.1 to 1 | 1 to 10 | 0.1 to 1 |
| CCNC1CCN(c2ccc(C(=O)Nc3cc(Oc4ccccc4C#N)c4nc(C)cn4c3)c3nn(C)cc23)CC1 [Compound 315, N-[8-(2-cyano-phenoxy)-2-methyl-imidazo[1,2-a]pyridin-6-yl]-4-[4-(ethylamino)-1-piperidyl]-2-methyl-indazole-7-carboxamide] | 1 to 10 | > 10 | > 10 | 1 to 10 | > 10 | > 10 | > 10 |
